Article PMC10092294 (Biomaterials, 2023)

Tests used:
human Topo IIα = human Topo IIα (Homo sapiens, UniProt P11388); test: Topoisomerase II inhibition assay; assay type: biochemical; conditions: read-out: Topo II inhibition
human Topo I = target: T1, human Topo I (Homo sapiens, UniProt P11387); test: Topoisomerase I inhibition assay; assay type: biochemical; conditions: for Topo I inhibition: final drug concentration 100 μM
T1 sequence (P11387 1-765): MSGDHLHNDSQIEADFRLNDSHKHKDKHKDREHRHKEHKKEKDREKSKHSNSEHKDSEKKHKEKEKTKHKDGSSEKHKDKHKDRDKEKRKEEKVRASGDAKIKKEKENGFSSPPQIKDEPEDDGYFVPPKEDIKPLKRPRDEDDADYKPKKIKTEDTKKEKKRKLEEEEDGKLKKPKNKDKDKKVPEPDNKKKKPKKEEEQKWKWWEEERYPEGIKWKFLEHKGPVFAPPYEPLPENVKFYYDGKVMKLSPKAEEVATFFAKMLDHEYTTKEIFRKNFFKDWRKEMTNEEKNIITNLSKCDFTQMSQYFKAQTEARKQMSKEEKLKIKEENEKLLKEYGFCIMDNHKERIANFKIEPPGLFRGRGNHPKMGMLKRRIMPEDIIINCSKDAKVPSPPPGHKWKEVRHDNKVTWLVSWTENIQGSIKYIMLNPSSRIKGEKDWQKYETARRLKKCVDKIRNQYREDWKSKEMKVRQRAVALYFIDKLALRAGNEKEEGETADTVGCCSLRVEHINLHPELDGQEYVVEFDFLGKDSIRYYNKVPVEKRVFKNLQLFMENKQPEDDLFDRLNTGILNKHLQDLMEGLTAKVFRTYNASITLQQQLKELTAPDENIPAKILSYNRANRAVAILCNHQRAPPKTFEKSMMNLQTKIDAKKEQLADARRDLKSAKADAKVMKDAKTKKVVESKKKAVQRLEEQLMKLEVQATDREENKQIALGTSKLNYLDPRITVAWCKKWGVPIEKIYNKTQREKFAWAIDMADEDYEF

Hec50co LOFp53 cells [1] = test: MTS cell viability assay, Hec50co LOFp53; assay type: cell-based; conditions: Homo sapiens, 72 h, read-out: cell viability
Hec50co GOFp53 cells [2] = test: MTS cell viability assay, Hec50co GOFp53; assay type: cell-based; conditions: Homo sapiens, 72 h, read-out: cell viability
KLE GOFp53 cells = test: MTS cell viability assay, KLE GOFp53; assay type: cell-based; conditions: Homo sapiens, 72 h, read-out: cell viability
Hec50co LOFp53 cells [3] = test: Cell cycle assay; assay type: cell-based, human; conditions: 10 nM PTX alone, 24 hours
Hec50co GOFp53 cells [4] = test: Cell cycle assay; assay type: cell-based, human; conditions: 10 nM PTX alone, 24 hours
tubulin = tubulin (Sus scrofa, UniProt P02554); test: Fluorescence-based tubulin polymerization assay; assay type: biochemical; conditions: 3 μM
caspase-9 = test: Caspase-9 activity in Hec50co LOFp53 cells; assay type: cell-based, human; conditions: 24 hours
caspase-3 = test: Caspase-3 activity in Hec50co LOFp53 cells; assay type: cell-based, human; conditions: 5 nM or 10 nM PTX alone, 72 hours
[5] = tested on: Hec50co LOFp53 xenograft tumors; test: In vivo antitumor efficacy, human endometrial cancer xenograft model; set-up: species or system athymic Nu/Nu mice; conditions: five doses
[6] = tested on: four different endometrial cancer cell lines; assay type: cell-based, human; conditions: 72 hours
microtubule assembly = conditions: cited from earlier work

Chain of human Topo IIα (P11388 whole entry): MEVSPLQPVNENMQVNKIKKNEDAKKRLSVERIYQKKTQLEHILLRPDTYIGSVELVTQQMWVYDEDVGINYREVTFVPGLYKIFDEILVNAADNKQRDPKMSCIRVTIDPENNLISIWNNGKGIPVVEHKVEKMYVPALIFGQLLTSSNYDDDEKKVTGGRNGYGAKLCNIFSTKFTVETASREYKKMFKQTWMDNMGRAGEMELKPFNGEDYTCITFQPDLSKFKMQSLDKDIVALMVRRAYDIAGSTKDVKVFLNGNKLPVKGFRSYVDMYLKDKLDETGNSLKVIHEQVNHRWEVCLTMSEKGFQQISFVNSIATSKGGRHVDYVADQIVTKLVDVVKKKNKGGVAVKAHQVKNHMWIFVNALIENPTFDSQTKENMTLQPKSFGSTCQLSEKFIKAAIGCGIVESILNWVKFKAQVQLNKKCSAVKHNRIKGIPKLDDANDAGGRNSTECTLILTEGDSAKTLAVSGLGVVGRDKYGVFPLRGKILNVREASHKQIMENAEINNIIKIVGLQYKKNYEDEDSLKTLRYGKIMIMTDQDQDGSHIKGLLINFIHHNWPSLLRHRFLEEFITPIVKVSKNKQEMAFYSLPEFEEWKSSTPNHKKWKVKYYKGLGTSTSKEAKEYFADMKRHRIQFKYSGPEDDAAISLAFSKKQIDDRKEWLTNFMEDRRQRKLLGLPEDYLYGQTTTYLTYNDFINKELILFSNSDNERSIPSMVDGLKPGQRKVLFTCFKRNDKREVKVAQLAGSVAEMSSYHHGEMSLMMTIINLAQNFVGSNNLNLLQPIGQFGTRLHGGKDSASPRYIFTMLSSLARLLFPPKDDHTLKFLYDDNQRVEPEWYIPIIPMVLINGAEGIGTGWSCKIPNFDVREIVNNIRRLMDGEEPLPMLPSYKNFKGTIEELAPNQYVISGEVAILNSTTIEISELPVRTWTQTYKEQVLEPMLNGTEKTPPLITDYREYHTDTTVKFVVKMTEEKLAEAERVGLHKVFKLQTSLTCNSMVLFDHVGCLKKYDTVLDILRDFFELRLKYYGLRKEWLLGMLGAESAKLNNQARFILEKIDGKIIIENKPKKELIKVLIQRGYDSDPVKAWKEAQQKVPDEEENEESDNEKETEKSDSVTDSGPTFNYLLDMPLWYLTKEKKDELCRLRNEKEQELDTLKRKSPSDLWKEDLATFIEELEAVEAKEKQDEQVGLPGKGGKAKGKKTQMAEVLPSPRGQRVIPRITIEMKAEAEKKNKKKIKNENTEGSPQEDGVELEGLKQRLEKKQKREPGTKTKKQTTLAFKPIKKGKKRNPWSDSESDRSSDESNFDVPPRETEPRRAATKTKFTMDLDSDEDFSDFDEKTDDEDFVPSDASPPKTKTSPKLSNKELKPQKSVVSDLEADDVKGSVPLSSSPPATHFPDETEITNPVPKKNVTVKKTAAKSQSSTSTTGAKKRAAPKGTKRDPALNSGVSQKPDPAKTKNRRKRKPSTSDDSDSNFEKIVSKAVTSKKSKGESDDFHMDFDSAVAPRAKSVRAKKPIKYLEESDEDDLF
Chain of tubulin (P02554 whole entry): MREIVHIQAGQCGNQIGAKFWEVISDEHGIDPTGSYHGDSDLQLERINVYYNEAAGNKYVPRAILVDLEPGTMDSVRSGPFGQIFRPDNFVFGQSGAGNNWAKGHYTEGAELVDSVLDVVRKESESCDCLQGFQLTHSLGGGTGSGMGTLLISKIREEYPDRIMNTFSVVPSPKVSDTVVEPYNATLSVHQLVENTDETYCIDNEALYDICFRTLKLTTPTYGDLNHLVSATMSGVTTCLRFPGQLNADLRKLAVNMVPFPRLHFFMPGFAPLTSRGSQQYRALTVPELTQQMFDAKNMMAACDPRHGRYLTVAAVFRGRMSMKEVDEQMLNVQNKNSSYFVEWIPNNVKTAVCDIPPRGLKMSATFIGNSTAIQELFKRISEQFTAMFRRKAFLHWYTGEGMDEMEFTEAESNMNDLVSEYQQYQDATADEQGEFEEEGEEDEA
Chain of tubulin (P02550 whole entry partner): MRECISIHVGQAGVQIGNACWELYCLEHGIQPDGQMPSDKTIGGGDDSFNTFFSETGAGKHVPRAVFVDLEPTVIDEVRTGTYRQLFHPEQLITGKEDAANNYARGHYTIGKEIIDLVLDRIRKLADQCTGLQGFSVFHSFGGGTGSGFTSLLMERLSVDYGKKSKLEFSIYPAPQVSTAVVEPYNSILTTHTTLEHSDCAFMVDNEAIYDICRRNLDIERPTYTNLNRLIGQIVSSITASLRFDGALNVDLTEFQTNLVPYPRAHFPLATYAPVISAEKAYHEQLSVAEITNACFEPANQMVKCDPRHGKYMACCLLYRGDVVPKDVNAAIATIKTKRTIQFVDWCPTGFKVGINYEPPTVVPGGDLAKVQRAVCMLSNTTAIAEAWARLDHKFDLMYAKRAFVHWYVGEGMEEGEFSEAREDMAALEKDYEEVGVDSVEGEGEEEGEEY

SMILES: COc1cc([C@@H]2c3cc4c(cc3[C@@H](O[C@@H]3O[C@@H]5CO[C@@H](C)O[C@H]5[C@H](O)[C@H]3O)[C@H]3COC(=O)[C@H]23)OCO4)cc(OC)c1O [ETO, etoposide]
- inhibition at 100 µM (human Topo IIα): 96.3 ± 0.8%

SMILES: CC[C@@]1(O)C(=O)OCc2c1cc1n(c2=O)Cc2cc3ccccc3nc2-1 [CAM, camptothecin]
- inhibition at 100 µM (human Topo I; read-out: Topo I inhibition): 52.6 ± 1.3%

SMILES: CC(=O)O[C@H]1C(=O)[C@@]2(C)[C@H]([C@H](OC(=O)c3ccccc3)[C@]3(O)C[C@H](OC(=O)[C@H](O)[C@@H](NC(=O)c4ccccc4)c4ccccc4)C(C)=C1C3(C)C)[C@]1(OC(C)=O)CO[C@@H]1C[C@@H]2O [PTX, paclitaxel]
- viability at 0.01 µM (Hec50co LOFp53 cells [1]): 31.2 ± 4.1%
- viability at 0.01 µM (Hec50co GOFp53 cells [2]): 17.9 ± 1.4%
- viability at 0.01 µM (KLE GOFp53 cells): 63.5 ± 0.6%
- cells in the G2/M phase (Hec50co LOFp53 cells [3]): 43.7 ± 0.5%
- cells in the G2/M phase (Hec50co GOFp53 cells [4]): 57.3 ± 1.1%
- Topo I inhibition (human Topo I): no activity
- inhibition at 100 µM (human Topo IIα): 8.3 ± 4.2%
- onset time of tubulin polymerization (tubulin): approximately 5 minutes
- caspase-9 activity vs untreated (caspase-9; 5 nM PTX): did not show a significant difference
- caspase-9 activity vs untreated (caspase-9; 10 nM PTX): significant increase
- caspase-3 activity vs untreated (caspase-3): significantly higher
- average tumor volumes vs PBS group ([5]; 5 mg/kg PTX SC peritumoral): smaller than those in control mice injected with PBS, albeit not significantly
- average weight of tumors vs PBS group, day 53 ([5]; 5 mg/kg PTX ± 5 mg/kg CIP2b SC peritumoral): not significantly different

SMILES: O=C(O)c1cn(C2CC2)c2cc(N3CCNCC3)c(F)cc2c1=O [CIP, ciprofloxacin]
- benefit of CIP alone or in combination with PTX in comparison to PTX alone [6]: no benefits
- Topo I inhibition (human Topo I): no activity
- inhibition at 100 µM (human Topo IIα): 62.3 ± 17.1%
- impact on microtubule assembly in cells (microtubule assembly): does not impact
